Test results from the supplement of paper PMC12350171.

Key:
[1] = test system: Com21 synthetic gut community; assay: community biomass OD578 after 24 h drug treatment relative to untreated (fraction of untreated control); higher = more community growth; details: community: Com21 (Com20 + E. coli ED1a)
Experimental: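 Com21 (Com20 plus E. coli ED1a) was treated with drug for 24 h under anaerobic conditions in mGAM. Community OD578 was then measured and normalised to untreated Com21; mean of 3 biological replicates.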

[2] = test system: Bacteroides thetaiotaomicron; assay: IC25 growth inhibition; higher = less potent
Summary of the method: (§1)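 Monocultures grown overnight in mGAM were added to pre-reduced plates holding twofold drug dilutions, giving a starting OD578 of 0.01 and 1% DMSO (or water). Growth was followed anaerobically by hourly OD578 readings in a plate reader, with at least three biological replicates. The median growth-curve AUC per concentration was forced to be monotonic. IC25 was the lowest concentration with median AUC below 0.75, reported as a tested interval.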

Coprococcus comes = assay: IC25 growth inhibition; higher = less potent
Summary of the method: as §1

Eubacterium rectale = assay: IC25 growth inhibition; higher = less potent
Summary of the method: as §1

Escherichia coli ED1a = assay: IC25 growth inhibition; higher = less potent
Summary of the method: as §1

Bacteroides vulgatus = assay: IC25 growth inhibition; higher = less potent
Summary of the method: as §1

Ruminococcus gnavus = assay: IC25 growth inhibition; higher = less potent
Summary of the method: as §1

Bacteroides uniformis = assay: IC25 growth inhibition; higher = less potent
Summary of the method: as §1

Streptococcus salivarius = assay: IC25 growth inhibition; higher = less potent
Summary of the method: as §1

Shigella flexneri = assay: IC25 growth inhibition; higher = less potent
Summary of the method: as §1

Vibrio cholerae = assay: IC25 growth inhibition; higher = less potent
Summary of the method: as §1

[3] = test system: Fusobacterium nucleatum subsp. Nucleatum; assay: IC25 growth inhibition; higher = less potent
Summary of the method: as §1

Roseburia intestinalis = assay: IC25 growth inhibition; higher = less potent
Summary of the method: as §1

Parabacteroides merdae = assay: IC25 growth inhibition; higher = less potent
Summary of the method: as §1

Bacteroides fragilis NT = assay: IC25 growth inhibition; higher = less potent
Summary of the method: as §1

Dorea formicigenerans = assay: IC25 growth inhibition; higher = less potent
Summary of the method: as §1

[4] = test system: Salmonella enterica typhimurium; assay: IC25 growth inhibition; higher = less potent
Summary of the method: as §1

[5] = test system: Yersinia pseudotuberculosis; assay: IC25 growth inhibition; higher = less potent
Summary of the method: as §1

Collinsella aerofaciens = assay: IC25 growth inhibition; higher = less potent
Summary of the method: as §1

[6] = test system: Yersinia enterocolitica WA-314; assay: IC25 growth inhibition; higher = less potent
Summary of the method: as §1

[7] = test system: Streptococcus parasanguinis; assay: IC25 growth inhibition; higher = less potent
Summary of the method: as §1

Clostridium ramosum = assay: IC25 growth inhibition; higher = less potent
Summary of the method: as §1

Clostridium perfringens = assay: IC25 growth inhibition; higher = less potent
Summary of the method: as §1

Clostridium bolteae = assay: IC25 growth inhibition; higher = less potent
Summary of the method: as §1

[8] = test system: Clostridium saccharolyticum; assay: IC25 growth inhibition; higher = less potent
Summary of the method: as §1

[9] = drug pretreatment concentration 10 µM
[10] = drug pretreatment concentration 20 µM
[11] = drug pretreatment concentration 40 µM
[12] = drug pretreatment concentration 80 µM
[13] = drug pretreatment concentration 160 µM
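Throughout, for IC25 growth inhibition: lowest concentration where monotonic median growth AUC falls below 0.75 of drug-free control.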

Row | SMILES | community biomass OD578 [1, 9] | community biomass OD578 [1, 10] | community biomass OD578 [1, 11] | community biomass OD578 [1, 12] | community biomass OD578 [1, 13] | IC25 growth inhibition [2] [µM] | IC25 growth inhibition (Coprococcus comes) [µM] | IC25 growth inhibition (Eubacterium rectale) [µM] | IC25 growth inhibition (Escherichia coli ED1a) [µM] | IC25 growth inhibition (Bacteroides vulgatus) [µM] | IC25 growth inhibition (Ruminococcus gnavus) [µM] | IC25 growth inhibition (Bacteroides uniformis) [µM] | IC25 growth inhibition (Streptococcus salivarius) [µM] | IC25 growth inhibition (Shigella flexneri) [µM] | IC25 growth inhibition (Vibrio cholerae) [µM] | IC25 growth inhibition [3] [µM] | IC25 growth inhibition (Roseburia intestinalis) [µM] | IC25 growth inhibition (Parabacteroides merdae) [µM] | IC25 growth inhibition (Bacteroides fragilis NT) [µM] | IC25 growth inhibition (Dorea formicigenerans) [µM] | IC25 growth inhibition [4] [µM] | IC25 growth inhibition [5] [µM] | IC25 growth inhibition (Collinsella aerofaciens) [µM] | IC25 growth inhibition [6] [µM] | IC25 growth inhibition [7] [µM] | IC25 growth inhibition (Clostridium ramosum) [µM] | IC25 growth inhibition (Clostridium perfringens) [µM] | IC25 growth inhibition (Clostridium bolteae) [µM] | IC25 growth inhibition [8] [µM]
1 | CCC[C@@H]1C[C@@H](C(=O)N[C@@H]([C@H]2O[C@H](SC)[C@H](O)[C@@H](O)[C@H]2O)[C@H](C)Cl)N(C)C1 [Clindamycin] | 0.263 | 0.273 | 0.238 | 0.158 | 0.062 | – | – | – | – | – | – | – | – | – | – | – | – | – | – | – | – | – | – | – | – | – | – | – | –
2 | CCN(CC)CCOc1ccc(C(=C(Cl)c2ccccc2)c2ccccc2)cc1 [Clomiphene] | 0.947 | 0.955 | 0.845 | 0.398 | 0.335 | – | – | – | – | – | – | – | – | – | – | – | – | – | – | – | – | – | – | – | – | – | – | – | –
3 | CCOC(=O)C1=C(C)NC(C)=C(C(=O)OC)C1c1cccc(Cl)c1Cl (stereo unspecified) [Felodipine] | – | – | – | – | – | ≤ 40 | > 40 | ≤ 20 | > 40 | ≤ 20 | ≤ 40 | ≤ 20 | ≤ 10 | > 80 | > 80 | > 40 | ≤ 10 | ≤ 40 | ≤ 20 | ≤ 20 | > 20 | > 80 | ≤ 40 | > 20 | ≤ 40 | – | – | – | –
4 | Cc1c(N(C)CS(=O)(=O)O)c(=O)n(-c2ccccc2)n1C [Metamizole] | 1 | 0.981 | 1.01 | 1 | 0.994 | – | – | – | – | – | – | – | – | – | – | – | – | – | – | – | – | – | – | – | – | – | – | – | –
5 | Cc1ncc([N+](=O)[O-])n1CCO [Metronidazol] | – | – | – | – | – | < 1.25 | < 1.25 | < 1.25 | > 160 | < 1.25 | < 1.25 | < 1.25 | > 160 | > 160 | ≤ 160 | < 1.25 | < 1.25 | < 1.25 | < 1.25 | < 1.25 | – | ≤ 160 | < 1.25 | > 160 | ≤ 160 | < 1.25 | < 1.25 | < 1.25 | < 1.25
6 | N=C(N)c1ccc(OCCCCCOc2ccc(C(=N)N)cc2)cc1 [Pentamidine Isothionate] | – | – | – | – | – | ≤ 20 | < 1.25 | ≤ 5 | > 160 | ≤ 20 | ≤ 2.5 | ≤ 20 | ≤ 10 | ≤ 160 | > 160 | ≤ 10 | ≤ 5 | ≤ 5 | ≤ 80 | < 1.25 | – | ≤ 160 | ≤ 10 | > 80 | ≤ 10 | ≤ 40 | ≤ 2.5 | > 160 | ≤ 10
